The values that follow come from patent US11178895B2, “Composition for enhancing immunity of insects and method thereof” (NatureWise Biotech & Medicals Corporation, priority 2017, dated 2021).

This series deals with field bees. Kind of series: Honey bee acute contact toxicity test (topical imidacloprid): tolerance of bees to imidacloprid. In kind it is in vivo. As to conditions: control group fed 50% sucrose water. The text has this: Many reports confirm that neonicotinoids cause damage to the immune system of bees and many species (Mason et al., 2013). It is clear that damage to the immune system may be one of the important causes of bee killing by imidacloprid (a pesticide). According to the experimental results of the composition of the invention on the survival rate of bees and the regulation of immune genes, in this experiment, field bees that are easily exposed to pesticides are used as the test subjects, and sugar water containing a concentration of 0.5 mg/mL of Macaranga tanarius extract is fed to observe whether the tolerance of bees to imidacloprid can be enhanced.
The experiment employed Topical application method with reference to US EPAOCSPP 850.3020: Honey Bee Acute Contact Toxicity Test. […] After the bees were frozen and fainted, 1 μg/bee of the imidacloprid solution was administered quantitatively to the prothorax tergum of the bee by a microapplicator. The solvent control group was administered with 1 […]. Each group had 10 bees. After the administration of the drug, the bees were transferred to a constant-temperature growth box for breeding. The sugar water containing 0.5 mg/mL of Macaranga tanarius extract was provided to feed the bees in the experimental group, and the control group was fed with 50% sucrose water. […]

With `O=[N+]([O-])NC1=NCCN1Cc1ccc(Cl)nc1` [imidacloprid], the “24-hour average mortality rate” value is recorded as 19.30% (6.7 ng/μL imidacloprid) and 36.84% (23.8 ng/μL imidacloprid).
